Data published in PubChem BioAssay (NCI).
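Assay format: 96-well plates, 48-hour exposure. TGI denotes the concentration required for complete inhibition of growth.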

How the values were obtained:
Assay in all cases: growth of human tumour cells (NCI), 48 h
EKVX NSCLC = tested on: EKVX NSCLC
RXF 393 renal = tested on: RXF 393 renal
SF-295 CNS = tested on: SF-295 CNS
HCT-116 colon = tested on: HCT-116 colon
CCRF-CEM leukemia = tested on: CCRF-CEM leukemia
MDA-MB-231 breast = tested on: MDA-MB-231 breast
HCT-15 colon = tested on: HCT-15 colon
MALME-3M melanoma = tested on: MALME-3M melanoma
SK-OV-3 ovarian = tested on: SK-OV-3 ovarian
HCC-2998 colon = tested on: HCC-2998 colon
HL-60(TB) leukemia = tested on: HL-60(TB) leukemia
OVCAR-8 ovarian = tested on: OVCAR-8 ovarian
CAKI-1 renal = tested on: CAKI-1 renal
LOX IMVI melanoma = tested on: LOX IMVI melanoma
SK-MEL-2 melanoma = tested on: SK-MEL-2 melanoma
UACC-62 melanoma = tested on: UACC-62 melanoma
NCI-H460 lung = tested on: NCI-H460 lung
HOP-62 NSCLC = tested on: HOP-62 NSCLC
RPMI-8226 leukemia = tested on: RPMI-8226 leukemia
MCF7 breast = tested on: MCF7 breast
NCI-H23 lung = tested on: NCI-H23 lung
HS 578T breast = tested on: HS 578T breast
SW-620 colon = tested on: SW-620 colon
SK-MEL-28 melanoma = tested on: SK-MEL-28 melanoma
KM12 colon = tested on: KM12 colon
T-47D breast = tested on: T-47D breast
786-0 renal = tested on: 786-0 renal
UO-31 renal = tested on: UO-31 renal
OVCAR-4 ovarian = tested on: OVCAR-4 ovarian
NCI-H226 lung = tested on: NCI-H226 lung
TK-10 renal = tested on: TK-10 renal
HOP-92 NSCLC = tested on: HOP-92 NSCLC
A549 NSCLC = tested on: A549 NSCLC
OVCAR-3 ovarian = tested on: OVCAR-3 ovarian
SNB-75 CNS = tested on: SNB-75 CNS
NCI-H522 lung = tested on: NCI-H522 lung
SN12C renal = tested on: SN12C renal
SR leukemia = tested on: SR leukemia
COLO 205 colon = tested on: COLO 205 colon
HT29 colon = tested on: HT29 colon
SNB-19 CNS = tested on: SNB-19 CNS
K-562 leukemia = tested on: K-562 leukemia
MDA-MB-435 = tested on: MDA-MB-435
DU-145 prostate = tested on: DU-145 prostate
MDA-N = tested on: MDA-N
SF-268 CNS = tested on: SF-268 CNS
U251 CNS = tested on: U251 CNS
ACHN renal = tested on: ACHN renal
NCI/ADR-RES ovarian = tested on: NCI/ADR-RES ovarian
OVCAR-5 ovarian = tested on: OVCAR-5 ovarian
SK-MEL-5 melanoma = tested on: SK-MEL-5 melanoma
IGROV1 ovarian = tested on: IGROV1 ovarian
M14 melanoma = tested on: M14 melanoma
A498 renal = tested on: A498 renal
BT-549 breast = tested on: BT-549 breast
UACC-257 melanoma = tested on: UACC-257 melanoma
PC-3 prostate = tested on: PC-3 prostate
MOLT-4 leukemia = tested on: MOLT-4 leukemia
SF-539 CNS = tested on: SF-539 CNS

SMILES: CC1(C)[C@@H]2C[C@H]1c1cnc(-c3ccccn3)cc1C2[C@@H]1c2cc(-c3ccccn3)ncc2[C@@H]2C[C@H]1C2(C)C (stereo not given in full)
- TGI (EKVX NSCLC): > 100 µM
- TGI (RXF 393 renal): > 100 µM
- TGI (SF-295 CNS): > 100 µM
- TGI (HCT-116 colon): > 100 µM
- TGI (CCRF-CEM leukemia): > 100 µM
- TGI (MDA-MB-231 breast): > 100 µM
- TGI (HCT-15 colon): > 100 µM
- TGI (MALME-3M melanoma): > 100 µM
- TGI (SK-OV-3 ovarian): > 100 µM
- TGI (HCC-2998 colon): > 100 µM
- TGI (HL-60(TB) leukemia): > 100 µM
- TGI (OVCAR-8 ovarian): > 100 µM
- TGI (CAKI-1 renal): > 100 µM
- TGI (LOX IMVI melanoma): > 100 µM
- TGI (SK-MEL-2 melanoma): > 100 µM
- TGI (UACC-62 melanoma): > 100 µM
- TGI (NCI-H460 lung): > 100 µM
- TGI (HOP-62 NSCLC): > 100 µM
- TGI (RPMI-8226 leukemia): > 100 µM
- TGI (MCF7 breast): > 100 µM
- TGI (NCI-H23 lung): > 100 µM
- TGI (HS 578T breast): > 100 µM
- TGI (SW-620 colon): > 100 µM
- TGI (SK-MEL-28 melanoma): > 100 µM
- TGI (KM12 colon): > 100 µM
- TGI (T-47D breast): > 100 µM
- TGI (786-0 renal): > 100 µM
- TGI (UO-31 renal): 85.9 µM
- TGI (OVCAR-4 ovarian): 85.3 µM
- TGI (NCI-H226 lung): > 100 µM
- TGI (TK-10 renal): 75.1 µM
- TGI (HOP-92 NSCLC): > 100 µM
- TGI (A549 NSCLC): > 100 µM
- TGI (OVCAR-3 ovarian): > 100 µM
- TGI (SNB-75 CNS): > 100 µM
- TGI (NCI-H522 lung): > 100 µM
- TGI (SN12C renal): > 100 µM
- TGI (SR leukemia): > 100 µM
- TGI (COLO 205 colon): > 100 µM
- TGI (HT29 colon): > 100 µM
- TGI (SNB-19 CNS): > 100 µM
- TGI (K-562 leukemia): > 100 µM
- TGI (MDA-MB-435): > 100 µM
- TGI (DU-145 prostate): > 100 µM
- TGI (MDA-N): > 100 µM
- TGI (SF-268 CNS): > 100 µM
- TGI (U251 CNS): > 100 µM
- TGI (ACHN renal): > 100 µM
- TGI (NCI/ADR-RES ovarian): > 100 µM
- TGI (OVCAR-5 ovarian): > 100 µM
- TGI (SK-MEL-5 melanoma): > 100 µM
- TGI (IGROV1 ovarian): > 100 µM
- TGI (M14 melanoma): > 100 µM
- TGI (A498 renal): > 100 µM
- TGI (BT-549 breast): > 100 µM
- TGI (UACC-257 melanoma): > 100 µM
- TGI (PC-3 prostate): > 100 µM
- TGI (MOLT-4 leukemia): > 100 µM

SMILES: CCCCSc1n/c(=C\c2ccc(N(C)C)cc2)c2nnnn12
- TGI (EKVX NSCLC): > 100 µM
- TGI (RXF 393 renal): > 100 µM
- TGI (SF-295 CNS): > 100 µM
- TGI (HCT-116 colon): > 100 µM
- TGI (MDA-MB-231 breast): > 100 µM
- TGI (HCT-15 colon): > 100 µM
- TGI (MALME-3M melanoma): > 100 µM
- TGI (SK-OV-3 ovarian): > 100 µM
- TGI (HCC-2998 colon): > 100 µM
- TGI (HL-60(TB) leukemia): > 100 µM
- TGI (OVCAR-8 ovarian): > 100 µM
- TGI (CAKI-1 renal): > 100 µM
- TGI (LOX IMVI melanoma): > 100 µM
- TGI (SK-MEL-2 melanoma): > 100 µM
- TGI (UACC-62 melanoma): > 100 µM
- TGI (NCI-H460 lung): > 100 µM
- TGI (HOP-62 NSCLC): > 100 µM
- TGI (RPMI-8226 leukemia): > 100 µM
- TGI (MCF7 breast): > 100 µM
- TGI (NCI-H23 lung): > 100 µM
- TGI (HS 578T breast): > 100 µM
- TGI (SW-620 colon): > 100 µM
- TGI (SK-MEL-28 melanoma): > 100 µM
- TGI (KM12 colon): > 100 µM
- TGI (T-47D breast): > 100 µM
- TGI (786-0 renal): > 100 µM
- TGI (UO-31 renal): > 100 µM
- TGI (OVCAR-4 ovarian): > 100 µM
- TGI (NCI-H226 lung): > 100 µM
- TGI (TK-10 renal): > 100 µM
- TGI (HOP-92 NSCLC): > 100 µM
- TGI (A549 NSCLC): > 100 µM
- TGI (OVCAR-3 ovarian): > 100 µM
- TGI (SNB-75 CNS): > 100 µM
- TGI (NCI-H522 lung): > 100 µM
- TGI (SN12C renal): > 100 µM
- TGI (SR leukemia): > 100 µM
- TGI (COLO 205 colon): > 100 µM
- TGI (HT29 colon): > 100 µM
- TGI (SNB-19 CNS): > 100 µM
- TGI (K-562 leukemia): > 100 µM
- TGI (SF-539 CNS): > 100 µM
- TGI (MDA-MB-435): > 100 µM
- TGI (DU-145 prostate): > 100 µM
- TGI (MDA-N): > 100 µM
- TGI (SF-268 CNS): > 100 µM
- TGI (U251 CNS): > 100 µM
- TGI (ACHN renal): > 100 µM
- TGI (NCI/ADR-RES ovarian): > 100 µM
- TGI (OVCAR-5 ovarian): > 100 µM
- TGI (IGROV1 ovarian): > 100 µM
- TGI (M14 melanoma): > 100 µM
- TGI (A498 renal): > 100 µM
- TGI (BT-549 breast): > 100 µM
- TGI (UACC-257 melanoma): > 100 µM
- TGI (PC-3 prostate): > 100 µM
- TGI (MOLT-4 leukemia): > 100 µM
